In one test the test system is HCT116 tumors. Kind of test: In vivo drug delivery, tumor volume in HCT116 xenograft mice. Also on record: species or system Balb/c female nude mice. The following applies: 14 days, intratumoral single dose 10 mg/kg. How it is done: Six (6) to seven (7)-week-old Balb/c female nude mice (weight of 21 g to 25 g) were purchased from Orient Bio Inc., (Seoul, Korea), and were maintained in a 12-hour light/12-hour darkness cycle (12:12LD) at a temperature of 22° C. to 24° C., in humidity of 40% to 60%, and with food and water ad libitum. HCT116 was trypsinized, washed twice with serum-free DMEM, and dispersed at a density of 1×10^7 cells/mL PBS. […] of the dispersed cells was subcutaneously injected into the right back region of the mice. After the tumor size reached about 150 mm^3, the mice were randomly divided into six (6) groups depending on differences in the minimum weight and tumor size. The mice were intratumorally injected with physiological saline, DGO, GQD, Cur, DGO-Cur, and GQD-Cur dispersions at a total dose of 10 mg/kg. The tumor size of each of the groups was measured by a caliper, and the tumor volume was calculated by using the following equation: tumor volume=ab^2×0.5236, where ‘a’ is the maximum diameter of tumor, and ‘b’ is the minimum diameter of tumor. Relative tumor volumes were calculated as V/V0 (V0 was the tumor volume when the treatment was initiated).
Experimental female nude mice bearing subcutaneous xenografts were divided into groups and intratumorally injected with a single dose of each of physiological saline, pure DGO and GQDs, free Cur, or DGO-Cur and GQD-Cur composites. […]

A further test concerns HCT116 cells. Kind of test: In vitro cytotoxicity, MTT analysis. The following applies: HCT116, 100 μg/mL, 24 hours. The test is classed as cell-based, Human. How it is done:
Human colon cancer cells (HCT116) were maintained in a Dulbecco's modified Eagle medium (DMEM), and supplemented with 10% fetal bovine serum (FBS) and antibiotics (10,000 μg/mL streptomycin and 10,000 unit/mL penicillin) at 37° C. in a humidified atmosphere containing 5% CO2(v/v).
In vitro cytotoxicity was measured by using standard colorimetric 3-(4,5-dimethylthiazol-2-yl)-2,5-diphenyl tetrazolium bromide (MTT) analysis. For the MTT analysis, HCT116 cells were seeded in a 96-well cell-culture plate at 1×10^4/well, and cultured for 12 hours at 37° C. under 5% CO2. Thereafter, the HCT116 cells were cultured for 24 hours by using various concentrations ([…], 12.5, 25, 50, and 100 μg/mL) of GO, DGO, GQD, Cur, GO-Cur, DGO-Cur, and GQD-Cur. Next, 20 μl stock MTT (5 mg/mL) was added to each of the cells, and the cells were cultured under 5% CO2 at 37° C. for 4 hours. After the culture for additional 4 hours, the resulting formazan crystals were dissolved in dimethyl sulfoxide (DMED, 100 μl), and absorbance intensity was measured by a microplate reader at 570 nm. All the experiments were conducted in quadruplicate, and the relative cell viability (%) was expressed as a percentage relative to untreated control cells.

For the compound `COc1cc(/C=C/C(=O)CC(=O)/C=C/c2ccc(O)c(OC)c2)ccc1O` [Cur, Curcumin], the “inhibition of tumor proliferation” value in the test on HCT116 tumors is given as “tumor proliferation was initially inhibited to some extent”. Moreover, the cancer cells dead result with HCT116 cells is recorded as “about 70%”.
